Legend:
[1] = Cmax in chronic myeloid leukemia patient; type: ADME, organism-based; details: human, in vivo
[2] = Antiproliferative activity against human CML cells; type: functional, cell-based; details: Leukemia cell
[3] = Half life in chronic myeloid leukemia patient; type: ADME, organism-based; details: human, in vivo

Structure (SMILES)	Cmax [1] [nM]	IC50 [2] [nM]	half-life [3] [min]
Cc1ccc(NC(=O)c2ccc(CN3CCN(C)CC3)cc2)cc1Nc1nccc(-c2cccnc2)n1 [IMATINIB]	2000	350	–
Cc1nc(Nc2ncc(C(=O)Nc3c(C)cccc3Cl)s2)cc(N2CCN(CCO)CC2)n1.O [DASATINIB]	200	1	180
